Results: article PMC11247486, “Improving the In Vivo Stability of [^52Mn]Mn(II) Complexes with 18-Membered Macrocyclic Chelators for PET Imaging” (Journal of Medicinal Chemistry, 2024)

Experiments:
[1] = Serum stability of the 52Mn radiocomplexes, mouse serum; type: in vitro ADME; conditions: for intact complex / % activity of pellet / % activity of supernatant: 37 °C; for intact complex: 5 days
Procedure: (§1) The ^52Mn radiocomplexes were incubated with human or mouse serum at 37 °C. 50 μL of the radiocomplexes in PBS was combined with 500 μL of serum in triplicate and incubated at 37 °C for over 5 days. At indicated time points, 50 μL of the reaction mixture was removed and proteins were precipitated by addition of 50 μL of methanol. The precipitated proteins were centrifuged before iTLC measurements were performed over a period of 5 days on the supernatant. All the radio-TLC chromatograms for evaluation of stabilities are available in the Supporting Information section as Figures S9–S12.

[2] = Ex vivo biodistribution after PET/CT; type: in vivo, mice
Procedure: (§2) [^52Mn]Mn-CHXPYAN and [^52Mn]Mn-PYAN radiocomplexes were evaluated in vivo through 90 min dynamic PET/CT imaging of heathy mice followed by an ex vivo biodistribution analysis. Similarly, [^52Mn]MnCl2 was also studied as a control.
(§3) [^52Mn]Mn-CHXPYAN and [^52Mn]Mn-PYAN were synthesized with molar specific activities of 80 and 60 MBq/μmol, respectively. 1.04 ± 0.07 MBq (28 ± 2 μCi) of the radiocomplexes in 100 μL injection doses was prepared. The mice (n = 4 per group) were anesthetized with 2.5% isoflurane in oxygen and were injected via the retroorbital sinus. For comparison purposes, 1.04 ± 0.07 MBq (28 ± 2 μCi) of [^52Mn]MnCl2, pH 7 was also injected. After injection, mice were imaged on a Sofie GNEXT PET/CT scanner for a 90 min dynamic scan (9 frames of 10 min each) followed by a 3 min CT at 80 kVp for anatomical reference. PET images were reconstructed via 3D-OSEM (Ordered Subset Expectation Maximization) algorithm (24 subsets and 3 iterations), with random, attenuation, and decay correction, and CT was reconstructed with the modified Feldkamp algorithm and analyzed using VivoQuant 4.0 (Invicro Imaging Service and Software, Boston MA) software. After imaging, mice were euthanized, and organs were collected, weighed, and counted for associated radioactivity on an automated gamma counter. Radioactivity uptake was calculated as the percent injected dose per gram of tissue (% ID/g). Following the reconstruction of the images, ROIs (heart, liver, kidneys, muscle, and bone) were hand-drawn to determine the SUVs using the VivoQuant imaging software.

[3] = DTPA challenge of the radiocomplexes; type: physicochemical; conditions: DTPA (5 equiv), 37 °C
Procedure: (§4) Assessment of the stability and kinetic inertness of the radiocomplexes before in vivo evaluation was conducted to assess the possibilities of transchelation. In vitro stability assays including incubating the radiocomplexes with an excess (100 μM) of biologically relevant metal ions (Mg^2+, Zn^2+, Fe^2+, and Cu^2+), DTPA, and mouse and human serum were conducted.
(§5) For metal challenge studies, a 10 molar excess of 100 μM of metal ions in chloride solutions including CuCl2, ZnCl2, FeCl2, and MgCl2 relative to ligand concentration was incubated with the radiocomplexes at 37 °C. A 5 molar excess of DTPA was also added to compete with ^52Mn in the radiocomplexes. Decomplexation was monitored by radio-iTLC over a period of 5 days.

[4] = Dynamic PET/CT imaging, SUVmean analysis; type: in vivo; conditions: healthy mice, 1.5 h postinjection
Procedure: as §2
Regions of interest (ROIs) were manually drawn using CT images to determine the standard uptake value (SUVmean) using VivoQuant imaging software.
as §3

[5] = Metal challenge of the radiocomplexes; type: physicochemical
Procedure: as §4, §5

[6] = Serum stability of the 52Mn radiocomplexes, human serum; type: in vitro ADME; conditions: for intact complex / % activity of pellet / % activity of supernatant: 37 °C; for intact complex: 5 days
Procedure: as §1

[7] = healthy mice, 1.5 h postinjection, mean ± SD, n = 4

## [52Mn+2].c1cc2nc(c1)CN[C@@H]1CCCC[C@H]1NCc1cccc(n1)CN[C@@H]1CCCC[C@H]1NC2 [[^52Mn]Mn-CHXPYAN]
[1]
  intact complex: 96.31 ± 1.34%
[1]; day 1, average
  % activity of pellet: 10.33%
  % activity of supernatant: 89.66%
[1]; day 2, average
  % activity of pellet: 10.82%
  % activity of supernatant: 89.18%
[1]; day 3, average
  % activity of pellet: 12.07%
  % activity of supernatant: 87.93%
[1]; day 4, average
  % activity of pellet: 14.33%
  % activity of supernatant: 85.66%
[1]; day 5, average
  % activity of pellet: 12.14%
  % activity of supernatant: 87.67%
[1]; all time points
  radioactivity associated with the protein pellet: < 15%
[2]; [7]
  Biodistribution, Blood: 0.14 ± 0.01 % ID/g
  Biodistribution, Brain: 0.03 ± 0.01 % ID/g
  Biodistribution, Fat: 0.11 ± 0.13 % ID/g
  Biodistribution, Femur: 0.09 ± 0.04 % ID/g
  Biodistribution, Heart: 0.21 ± 0.01 % ID/g
  Biodistribution, Kidney: 11.27 ± 1.11 % ID/g
  Biodistribution, L. Intestine: 3.45 ± 1.44 % ID/g
  Biodistribution, Liver: 1.72 ± 0.93 % ID/g
  Biodistribution, Lungs: 0.26 ± 0.12 % ID/g
  Biodistribution, Muscle: 0.02 ± 0.01 % ID/g
  Biodistribution, Pancreas: 0.20 ± 0.09 % ID/g
  Biodistribution, S. Intestine: 2.32 ± 0.83 % ID/g
  Biodistribution, Skin: 0.08 ± 0.04 % ID/g
  Biodistribution, Spleen: 0.22 ± 0.18 % ID/g
  Biodistribution, Stomach: 0.08 ± 0.04 % ID/g
[3]; day 5
  intact complex: 5.73 ± 0.25%
[4]
  SUVmean, kidneys: 0.20 ± 0.03
  SUVmean, liver: 0.10 ± 0.02
[5]; 10 molar excess of Cu^2+, day 5
  intact complex: 14.56 ± 1.09%
[5]; 10 molar excess of Zn^2+, day 5
  intact complex: 8.14 ± 1.76%
[6]
  intact complex: 98.04 ± 0.18%
[6]; day 1, average
  % activity of pellet: 13.09%
  % activity of supernatant: 86.91%
[6]; day 2, average
  % activity of pellet: 12.54%
  % activity of supernatant: 87.45%
[6]; day 3, average
  % activity of pellet: 14.46%
  % activity of supernatant: 85.54%
[6]; day 4, average
  % activity of pellet: 10.33%
  % activity of supernatant: 89.66%
[6]; day 5, average
  % activity of pellet: 9.31%
  % activity of supernatant: 90.7%
[6]; all time points
  radioactivity associated with the protein pellet: < 15%

## [52Mn+2].c1cc2nc(c1)CNCCNCc1cccc(n1)CNCCNC2 [[^52Mn]Mn-PYAN]
[1]
  intact complex: 90.67 ± 1.12%
[2]; [7]
  Biodistribution, Blood: 0.70 ± 0.20 % ID/g
  Biodistribution, Brain: 0.45 ± 0.09 % ID/g
  Biodistribution, Fat: 1.03 ± 0.50 % ID/g
  Biodistribution, Femur: 0.80 ± 0.30 % ID/g
  Biodistribution, Heart: 1.85 ± 0.71 % ID/g
  Biodistribution, Kidney: 63.34 % ID/g
  Biodistribution, Liver: 30.39 ± 11.46 % ID/g
  Biodistribution, Lungs: 1.28 ± 0.51 % ID/g
  Biodistribution, Muscle: 0.18 ± 0.05 % ID/g
  Biodistribution, Pancreas: 2.41 ± 1.60 % ID/g
  Biodistribution, Skin: 0.32 ± 0.18 % ID/g
  Biodistribution, Spleen: 1.33 ± 0.93 % ID/g
  Biodistribution, Stomach: 1.29 ± 0.53 % ID/g
[2]; mouse, in vivo, 1.5 h
  Biodistribution, L. Intestine: 2.69 ± 0.82 % ID/g
  Biodistribution, S. Intestine: 13.00 ± 2.35 % ID/g
[3]; day 1
  intact complex: 2.32 ± 0.66%
[4]
  SUVmean, kidneys: 1.70 ± 0.26
  SUVmean, liver: 0.77 ± 0.14
[5]; 10 molar excess of Cu^2+, day 1
  intact complex: < 4%
[5]; 10 molar excess of Zn^2+, day 1
  intact complex: < 4%
[6]
  intact complex: 92.78 ± 1.22%
